# Laboratory results as given in article PMC8327158, “PEGylated AdipoRon derivatives improve glucose and lipid metabolism under insulinopenic and high-fat diet conditions” (Journal of Lipid Research, 2021).
# Tests used:
# [1] = Water solubility quantified by LC-MS/MS; type: physicochemical; conditions: for solubility: water
# Experimental: We quantified the solubilities of AdiponRons by LC-MS/MS. Briefly, water (HPLC grade) was added in 50–100 μl increments to a glass vial containing either AdipoRon (0.97 mg) or AdipoRonPEG5 (1.69 mg), vortexed until the compound started to dissolve (AdipoRon, […]; AdipoRonPEG5, […]). The suspension was then stirred overnight away from light. The solution was transferred to Teflon tubes and centrifuged at 15,000 rpm at room temperature for 10 min. We then collected the supernatant (aqueous saturated solution) for dilution and analysis.
# For standards, 98 μl water was added to an Eppendorf tube and combined with 200 μl of methanol containing 0.15% formic acid and 75 ng/ml […] Standard (IS, n-benzeylbenzamide in MeOH. IS final conc. = 50 ng/ml). Samples were spiked with 2 μl of IS. The samples were vortexed 15 s, and spun 2 × 13,200 rpm in a standard microcentrifuge. The supernatant was then analyzed by LC-MS/MS on a QTrap 4000 system (AB Sciex) with the following settings: Ion Source/Gas Parameters: CUR = 25, CAD = medium, IS = 5,000, TEM = 500, GS1 = 70, GS2 = 70. Buffer A: Water + 0.1% formic acid + 2 mM NH4OAC; Buffer B: methanol + 0.1% formic acid + 2 mM NH4OAC; flow rate 1.5 ml/min; Agilent C18 XDB column, 5 micron packing 50 × 4.6 mm size. HPLC elution gradient: 0–0.5 min 97% A, 0.5–2.0 min gradient to 100% B, 2.0–3.5 min 100% B, 3.5–3.6 min gradient to 97% A, 3.6–4.1 97% A. Compound transition 429.156 to 174.1 for AdipoRon and 665.289 to 135.2 for AdipoRonPEG5.
# [2] = Plasma pharmacokinetics after IP dosing; type: in vivo, C57BL/6J mice; conditions: IP 20 mg/kg; for Cmax: male, mouse, plasma, 8-week-old C57BL/6J mice, mean ± SEM
# Experimental: Two groups of male C57BL/6J mice (21 mice/group) at 8 weeks of age were dosed IP with 20 mg/kg AdipoRon or AdipoRonPEG5, 0.2 ml/mouse formulated as 10% DMSO/10% Cremophor/20% PEG400/60% PBS. Whole blood was harvested at seven time points post IP dosing, 10 min, 30 min, 90 min, 180 min, 360 min, 960 min, and 1,440 min. Three mice were euthanized at each time point. Plasma was processed from whole blood by centrifugation of the ACD-treated blood for 10′ at 10,000 rpm in a standard centrifuge. Additionally, the liver was harvested. The tissues were weighed and snap frozen in liquid nitrogen.
# To quantify plasma drug concentration and PK, we prepared standards by adding 98 μl blank plasma (BioIVT) to an eppendorf. These were spiked with 2 μl of initial standard. For QCs, we added 98.8 μl blank plasma to Eppendorf, spiked with 1.2 μl of initial standard. For samples, we mixed 100 μl plasma with 200 μl of methanol containing 0.15% formic acid and 75 ng/ml IS (IS final conc. = 50 ng/ml). The samples were vortexed 15 s, incubated at room temp for 10′, and spun 2× 13,200 rpm in a standard microcentrifuge. The supernatant was then analyzed by LC-MS/MS.
# INS-1 β-cells = experiment: Palmitate-induced cell death protection assay (PI fluorescence plate reader); type: cell-based, rat; conditions: PA 0.25 mM, 24 h
# Experimental: A 7.1 mM palmitic acid stock solution was prepared in 95% ethanol by incubating at 37°C. In parallel, 2% fatty-acid-free BSA was solubilized in sterile nanopure water at 37°C. The palmitic acid/BSA complex solution was then prepared by incubating the components in a molar ratio of 5:1 at 37°C in a shaking water bath for 1 h and was used directly for INS-1 stimulation experiments. Control cultures were carried out in the presence of BSA/ethanol in RPMI without palmitic acid.
# Quantification of β-cell death by PI staining was carried out on a fluorescence plate reader. Following a 2 h preincubation under serum-free conditions, INS-1 cells (60k cells/well, 96-well plate (COSTAR ref # 3603)) were kept for 24 h in Phenol Red-free FBS-free RPMI 0.5% BSA as a control or containing 0.25 mM PA-BSA in the presence or absence of treatment. Cells were stained for 10 min at 4°C with propidium iodide (PI) at 1 μg/ml (added to the existing media to avoid loss of dead cells). PI fluorescence intensity was measured with a plate reader (PHERAstar, BMG Labtech).
SMILES,times more soluble in water than the parent molecule ([1]; vs AdipoRon),"solubility ([1]; LC-MS/MS, mean ± SD) [µg/mL]",increase in maximal plasma concentration compared with AdipoRon [2],Cmax [2] [ng/mL],reduction of PA-induced apoptosis (INS-1 β-cells; 20 μM) [%],protective activity against PA-induced cell death (INS-1 β-cells; dose range),"solubility in water ([1]; LC-MS/MS, mean ± SD) [µg/mL]",protection from PA-induced cell death (INS-1 β-cells; 20 μM)
O=C(COc1ccc(C(=O)c2ccccc2)cc1)NC1CCN(Cc2ccc(OCCOCCOCCOCCOCCO)cc2)CC1 [AdipoRonPEG5],about 100 times,910 ± 36,threefold,6510 ± 685,~50,potent antiapoptotic activity,–,–
O=C(COc1ccc(C(=O)c2ccccc2)cc1)NC1CCN(Cc2ccccc2)CC1 [AdipoRon],–,8.99 ± 0.15,–,2170 ± 196,–,–,9,further modest increase in protection
